Results: patent US20100144543A1, “Epigenetic silencing of tumor suppressor genes” (The Salk Institute for Biological Studies, priority 2008, published 2010)
Numbered stars: 1 amine (or outer) side, 2 acyl side, 3 side chain; on linkers, the order of the positions; unused ones are H or OH. Bridge positions count the residues as written; N and C are the ends. Square brackets hold non-standard residues; d marks the D form. Peptide text beside a SMILES is read from it. I, II: the chains in the order shown. Actinocin(9to1) = Cc1c2oc3c(C)ccc(C(=O)[*:1])c3nc-2c(C(=O)[*:2])c(N)c1=O; NMeV = CN[C@H](C(=O)O)C(C)C; Sar = CNCC(=O)O

Tests used:
Assay type in all cases: cell-based, human
CTCF = assay: PARlation status of CTCF, IP with anti-PAR antibody; conditions: MDA-MB-435 cells, treated with 3-ABA for 24 hours
Procedure: As described above, CTCF may be important for maintaining an active p16 gene. To further investigate possible CTCF defects that may impact its function in p16-silenced T47D breast cancer cells, we examined its post-translational modifications and association with several known protein interaction partners. […] In addition, western blots were performed to determine the protein levels of CTCF and putative interacting partners in MDA-MB-435 and T47D cells (FIG. 4B). […] Moreover, PARP-1 and Nucleolin appear to associate with CTCF in a mutually exclusive manner, with Nucleolin being present in CTCF complexes only in p16 expressing cells. To explore this further, we examined the PARlation status of CTCF in each cell type using an antibody that recognizes ADP-ribose polymers (PAR). Unexpectedly, we found PARlation associated with both CTCF and Nucleolin in p16-expressing MDA-MB-435 cells but not in p16-silenced TD47 cells (FIG. 4D, upper panels). […] Inputs are equal to 2.5% starting material.
2 mg of whole cell lysates were diluted in IP buffer with 0.5% Triton X-100. Protein mixes were pre-cleared for 1-2 hours with protein G Sepharose, after which the beads were removed and CTCF (Upstate) or anto-phosphotyrosine (Upstate) antibody added overnight at 4° C. to capture complexes. Complexes were recovered with protein G Sepharose, washed 4 times in IP buffer and subsequently analyzed by SDS-PAGE.

p16 [1] = assay: qPCR expression analysis of CTCF target gene p16 upon inhibition of PARP activity; conditions: MDA-MB-435 cells, 24 hours, 5 mM 3-ABA, normalized to c-Myc
Procedure: (§1) Next, we examined whether PARlation of target proteins impacts the expression of CTCF-regulated tumor suppressor genes. To achieve this, we perturbed cellular PARlation activity in p16-expressing cells by two approaches: first, incubation with the broad-spectrum PARP inhibitor 3-ABA; and second, shRNA-mediated ablation of PARP-1. […] Results are normalized to c-Myc levels. Error bars represent ±standard deviation.
(§2) PARP-1 knockdown was achieved using the MISSION™ Lentiviral shRNA system from Sigma. Lentiviral particles were packaged in HEK293T cells, with virus collected 24 hours post-transfection. Cells infected with shRNA-containing virus and polybrene were selected using puromycin at 72 hours post infection.

RASSF1A [2] = assay: qPCR expression analysis of CTCF target gene RASSF1A upon inhibition of PARP activity; conditions: MDA-MB-435 cells, 24 hours, 5 mM 3-ABA, normalized to c-Myc
Procedure: as §1, §2

p16 gene = assay: p16 mRNA induction after AZA treatment (RT-PCR, qPCR); conditions: T47D cells treated with both AZA and Trichostatin A
From the text: The p16 tumor suppressor gene is commonly silenced in numerous types of human cancers and remains a relevant therapeutic target of wide interest. One method that is extensively employed to restore p16 expression, both clinically and in vitro, is treatment of cancer cells with hypomethylating-nucleoside analogues such as 5′AZA-2′-deoxycytidine (AZA) (Otterson et al. (1995) “CDKN2 gene silencing in lung cancer by DNA hypermethylation and kinetics of p16INK4 protein induction by 5-aza 2′ deoxycytidine.” Oncogene 11: 1211-1216; Schrump et al. (2006) “Phase I study of decitabine-mediated gene expression in patients with cancers involving the lungs, esophagus, or pleura.” Clin Cancer Res 12: 5777-5785), which reverses DNA methylation. We reasoned that treatment of cells with AZA might also restore CTCF binding at the p16 upstream promoter through one of two mechanisms. First, CTCF is known to bind DNA in a methylation-sensitive fashion (Hark et al. (2000) “CTCF mediates methylation-sensitive enhancer-blocking activity at the H19/Igf2 locus.” Nature 405: 486-489); thus, demethylation of the p16 locus might allow CTCF to reassociate. […]

RASSF1A [3] = assay: Inhibition of transcription, RT-PCR of RASSF1A; conditions: MDA-MB-435 cells, 24 hours, 2.5 μg/ml Actinomycin D or 1 μM Flavopiridol
From the text: (§3) CTCF is a ubiquitous, multifunctional protein that has a critical role in organizing distinct chromosomal domains through boundary/insulator formation (Filippova et al. (2005) “Boundaries between chromosomal domains of X inactivation and escape bind CTCF and lack CpG methylation during early development.” Dev Cell 8: 31-42; Ishihara et al. (2006) “CTCF-dependent chromatin insulator is linked to epigenetic remodeling.” Mol Cell 23: 733-742; Splinter et al. (2006) “CTCF mediates long-range chromatin looping and local histone modification in the beta-globin locus.” Genes Dev 20: 2349-2354) and in repressing or activating transcription. Because we saw a pronounced change in chromatin structure upstream of the p16 gene when active or silenced (FIG. 1), we explored the possibility that CTCF can associate within this region. […] Yet, we detected CTCF binding at a well-characterized target gene, c-Myc, in both p16-expressing and non-expressing cell types. […] CTCF was immunoprecipitated and analyzed for association with the p16^INK4a and RASSF1A gene. […]
(§4) MDA-MB-435 cells were treated with Flavopiridol (Sigma) or Actinomycin D (Sigma) at 1 μM and 2.5 μg/ml, respectively, for 24 hours. At this time cells were harvested and analyzed for gene expression and CTCF binding.

p16 [4] = assay: Inhibition of transcription, RT-PCR of p16; conditions: MDA-MB-435 cells, 24 hours, 2.5 μg/ml Actinomycin D or 1 μM Flavopiridol
From the text: as §3, §4

SMILES | RASSF1A transcription (RASSF1A [3]) | p16 transcription (p16 [4]) | also measured
NC(=O)c1cccc(N)c1 [3-ABA, 3-Aminobenzamide] |  |  | PARlation associated with CTCF and Nucleolin (CTCF): inhibited; p16 mRNA levels (p16 [1]): significant reduction; RASSF1A mRNA levels (RASSF1A [2]): dramatic decrease
CC(/C=C/C(=O)NO)=C\[C@@H](C)C(=O)c1ccc(N(C)C)cc1 [Trichostatin A] |  |  | synergistic p16 gene reactivation (p16 gene): No synergistic p16 gene reactivation
Cc1c2oc3c(C)ccc(C(=O)N[C@@H]4C(=O)N[C@H](C(C)C)C(=O)N5CCC[C@H]5C(=O)N(C)CC(=O)N(C)[C@@H](C(C)C)C(=O)O[C@@H]4C)c3nc-2c(C(=O)N[C@@H]2C(=O)N[C@H](C(C)C)C(=O)N3CCC[C@H]3C(=O)N(C)CC(=O)N(C)[C@@H](C(C)C)C(=O)O[C@@H]2C)c(N)c1=O [Actinomycin D] (I: T[dV]P[Sar][NMeV] / II: T[dV]P[Sar][NMeV]; ester I:1-I:C, II:1-II:C; linker I:N-II:N via Actinocin(9to1)) | inhibition | inhibition | 
CN1CC[C@H](c2c(O)cc(O)c3c(=O)cc(-c4ccccc4Cl)oc23)[C@H](O)C1 [Flavopiridol] | inhibition | inhibition | 
